Data set [1] deals with sympathetic neurotransmission. Put plainly: Sympathetic neurotransmission in isolated vasa differentia after chronic stress of social deprivation and predator exposure. The format is in vivo. The note with it: mice, social deprivation and presence of predators 10 to 12 days; odour diluted in triethyl citrate. How it is done: The effects of odours on experimental animals exposed to stressors that cause chronic stress was assessed. Mice were divided into two groups, a control group exposed to minimal stress and a group exposed to severe stress by concurrent isolation and exposure to a predator. Each group was divided into sub-groups, one not exposed to any odour (control), one exposed to triethyl citrate vehicle (control), and the other groups exposed to an odour or a mixture of odours selected from cis-2-hexen-1-ol, trans-3-hexen-1-ol, trans-2-hexen-1-ol, cis-3-hexen-1-ol, trans-2-hexenal and α-pinene. Each odour compound was diluted (0.01 to 0.05% volume) with triethyl citrate. The solutions (0.5 mL) were placed on filter paper strips and placed within 30 cm of the animal cage. The response to stress was assessed using any or a combination of telemetry measurements, post-mortem electrophysiological studies and biochemical assays of blood samples.
Isolated vasa differentia were used to assess the effects of prolonged exposure to stress and its attenuation by odours. Following exposure of the mice to one of the stressors with or without odour, the level of neurotransmission from sympathetic varicosities was examined using standard focal extracellular recording methods (Lavidis and Bennett, 1992, 1993a, 1993b; D'Arbe et al., 2002). […] The extent of the increase reflects the level of stress the animal was exposed to during the previous 6-14 days (D'Arbe et al., 1999, D'Arbe et al., 2002).
Mice were exposed to two stressors concurrently, social deprivation and the presence of predators (rats in separate cages) for 10 to 12 days with or without the following odours or combination of odours, cis-2-hexen-1-ol, trans-2-hexen-1-ol, trans-3-hexen-1-ol, trans-2-hexenal, cis-3-hexen-1-ol, α-pinene and a combination of cis-3-hexen-1-ol and trans-2-hexenal. Two controls were used: mice not exposed to stress and mice exposed to stress together with triethyl citrate vehicle. The mice were monitored for up to 4 days after the stressors were removed.
Mice were placed in cages with one mouse per cage (social deprivation) in a room that contained cages with rats (predators) without odours (control). […] Box plots of the excitatory junction currents (EJC) obtained by electrophysiological methods are shown in FIG. 2 (control) and FIG. 3 (treated) and indicate the maximum EJC amplitude (Max), the distribution of 3rd quartiles (Q3), the median, the distribution of the 1st quartiles (Q1) and the distribution of the means. The data is from 16 animals from each treatment with at least 40 recording sites.

The test system of data set [2] is smooth muscle of mouse vas deferens. Put plainly: Organ bath safety test: success rate of transmission after application of the chemicals. The format is cell-based. The note with it: 1.0% vol; for function of smooth muscle (success rate of transmission): evaluated over 40 minutes. How it is done: Safety data for the components of the combination of the invention have been obtained by applying the chemicals to smooth muscle in organ bath experiments. The mouse vas deferens was isolated and placed in an electrophysiological organ bath. Extracellular recording of transmitter release from sympathetic varicosities was recorded before and after both application of each of the chemicals CH, TH or ap. The effect (“success rate”) of each of the chemicals was evaluated over 40 minutes. Success rate was measured as (number of successful transmissions/number of nerve stimulations)×100. Following this measurement, the chemicals were washed out.

The next data set concerns rats. The note with it: cited from earlier work.
The next data set concerns humans. The note with it: cited from earlier work.

Turning to `CCC/C=C\CO` [cis-2-hexen-1-ol, reference compound], the “effectiveness of the odour or odour combination from most effective to least effective (mean excitatory junction potentials, FIG. 1)” value (“effectiveness” below) in data set [1] is given as “cis-2-hexen-1-ol>trans-3-hexen-1-ol”.

`CC/C=C\CCO` [cis-3-hexen-1-ol]: in data set [1], the “effectiveness” value is given as “cis-3-hexen-1-ol>trans-2-hexenal”. In data set [2], the “function of smooth muscle (success rate of transmission)” value (shortened to “function of smooth muscle”) is given as “did not significantly affect”.

Consider `CCC/C=C/CO` [trans-2-hexen-1-ol, reference compound], for which the “effectiveness” value in data set [1] is reported as “least effective”.

For `CCC/C=C/C=O` [trans-2-hexenal], the “effectiveness” value in data set [1] was “trans-2-hexenal>α-pinene”. Also, in data set [2], the “effect on the smooth muscle at the high concentration used” value is given as “relaxed smooth muscle cells” and the “function of smooth muscle” value is “did not significantly affect”.

For the compound `CC/C=C/CCO` [trans-3-hexen-1-ol, reference compound], the “effectiveness” value in data set [1] was “trans-3-hexen-1-ol>trans-2-hexen-1-ol”.

Take `CC1=CCC2CC1C2(C)C` (stereo not drawn) [α-pinene]: in data set [1], the “effectiveness” value is given as “α-pinene>cis-2-hexen-1-ol”. For the same compound, in data set [2], the “function of smooth muscle” value was “did not significantly affect”. Further, the resting period result with rats is given as “prolong the resting period”. Moreover, the hypnotic effect entry with humans is on record as “hypnotic effect”.

The values are drawn from patent US20090018212A1, “METHODS OF RELIEVING STRESS” (Neuroscent Pty Ltd., priority 2005, published 2009).
